According to patent publication US20230058557A1, “TRANSPLANTED CELL PROTECTION VIA INHIBITION OF POLYMORPHONUCLEAR CELLS” (The Regents of the University of California, priority 2020, published 2023):
Entries after “also recorded” stand apart in the source; their conditions may differ. Where two headings read alike, the source gives them in different places.

Tests used:
human PMNs = format: cell-based
Experimental: A comprehensive human immune assay was established using the XCelligence in vitro impedance system that obtains real-time kinetics of target cell killing. (ACEA BioSciences, San Diego, Calif., Catalog No. 00380601040). Wild-type (wt) and engineered iPSCs were differentiated into endothelial cells for this assay. […] Some experimental groups were treated with IL-2 (1 ng/ml), which is a central cytokine involved in allograft rejection. The assays were run for a duration of 90 h which is the maximum time period iECs can be cultured in this system before the monolayer breaks down spontaneously.
The immune system not only distinguishes between “self” and “non-self”, but also reacts to “danger” signals: released by autologous cells in distress. Matzinger, Ann. Rev. Immunol. 12:991-1045 (1994), incorporated by reference herein in its entirety. Intracellular components, released by damaged cells, can act as adjuvants and boost immune activation to alarm the immune system of cell death. Because apoptosis activates programmed cell death pathways aimed at digesting intracellular proteins, apoptotic cells are considered weak releasers of danger signals. […] For our in vitro assays, 20,000 target cells were sonicated to disrupt their cell membrane and release DAMPs and the cell debris was added to prior grown and confluent target iEC layer in Xcelligence assays.
Thus, for DAMP-activated XCelligence assays, iECs were plated and in addition to the immune effector cells, 20,000 sonicated target cells were added at the same time. […]
Ligands for CD200R and PIRLα are CD200 and CD99, respectively. Recombinant human CD200 Fc chimera proteins (R&D Systems, Minneapolis, Minn., Catalog no. 2724-CD-050) and CD99 Fc chimera proteins (R&D Systems, Minneapolis, Minn., Catalog no. 3968-CD-050) engage these receptors. These Fc chimera proteins were added to the assays at 10 μg/ml. There is no known ligand for SIRL-1 but there is an activating monoclonal SIRL-1 antibody to trigger downstream inhibitory signaling (Steevels T A., Eur J. Immunol. 43(5):1297-308 (2013)). The human PMNs were activated via DAMPs or IL-2 and the killing of human wt and HIP iECs was assessed (FIG. 8).
BAY 85-8501 was used at 1 nM or 1 μM concentrations. The effector PMNs were stimulated with sonicated cells or IL-2.
Activating receptors include the family of toll-like receptors (TLRs) that are activated by a wide range of ligands including DAMPs. PMN activation pathways were inhibited by TAK-242 (MedChem Express, Monmouth Junction, N.J., Catalog No. HY-11109, 10 μM for in vitro Xcelligence assays), a small-molecule inhibitor of TLR-4-mediated signaling. Wild-type and HIP cells were used on the XCelligence platform using PMNs as effector cells (FIG. 13). Necrotic cells or IL-2 were used as PMN stimulators.

[1] = in mice; cited from earlier work
[2] = 10 μM, DAMP- or IL-2 activated PMNs
[3] = PMNs activated via DAMPs (necrotic/sonicated cells), Fc chimera proteins 10 μg/ml
[4] = PMNs stimulated with IL-2, Fc chimera proteins 10 μg/ml

COc1cc(C(C)=O)ccc1O [Apocynin]
PMN killing of wt and HIP iECs (human PMNs; [2]): diminished

CC1=C(C#N)[C@@H](c2ccc(C#N)cc2S(C)(=O)=O)N(C)C(=O)N1c1cccc(C(F)(F)F)c1 [BAY 85-8501]
PMN killing of wt or HIP target cells (human PMNs; 1 nM, compared with 1 μM): less effective | PMN killing of wt or HIP target cells (human PMNs; 1 μM, PMNs activated via DAMPs from sonicated cells): fully prevented | PMN killing of wt or HIP target cells (human PMNs; 1 μM, in the presence of IL-2): further delayed the target cell killing

CC[C@H](Nc1ncnc2[nH]cnc12)c1nc2cccc(F)c2c(=O)n1-c1ccccc1 [Idelalisib]
PMN killing of wt and HIP iECs (human PMNs; [2]): mildly diminished PMN killing

CCOC(=O)C1=CCCC[C@H]1S(=O)(=O)Nc1ccc(F)cc1Cl [TAK-242]
PMN killing of wt and HIP iECs, efficacy by stimulator (human PMNs; 10 μM, DAMPs compared with IL-2): stronger | PMN killing of wt and HIP iECs (human PMNs; 10 μM, IL-2): still markedly reduced | PMN killing of wt and HIP iECs (human PMNs; 10 μM, necrotic cells (DAMPs) or IL-2 as PMN stimulators): diminished PMN killing

COc1cc2c(c(OC)c1OC)-c1ccc(OC)c(=O)cc1[C@@H](NC(C)=O)CC2 [colchicine]
PMN killing of wt and HIP iECs (human PMNs; 1 μM monotherapy, DAMP or IL-2 activated PMNs): mild inhibitor; also recorded: only marginal efficacy

A1AT: Alpha-1 antitrypsin, Neutrophil Elastase inhibitor (Sigma-Aldrich A9024)
PMN killing of wt and HIP iECs (human PMNs; 30 μM recombinant A1AT): minorly effective; also recorded: some minor activity against PMN killing | Half-life of A1AT [1]: approx. 4.5 days

B1: CD200 Fc chimera: Recombinant human CD200 Fc chimera protein (R&D Systems 2724-CD-050), ligand for CD200R (protein)
chain: QVQVVTQDEREQLYTPASLKCSLQNAQEALIVTWQKKKAVSPENMVTFSENHGVVIQPAYKDKINITQLGLQNSTITFWNITLEDEGCYMCLFNTFGFGKISGTACLTVYVQPIVSLHYKFSEDHLNITCSATARPAPMVFWKVPRSGIENSTVTLSHPNGTTSVTSILHIKDPKNQVGKEVICQVLHLGTVTDFKQTVNKG
modifications: left off: a dimerising Fc or GST
notes: Recombinant human CD200 Fc chimera protein (R&D Systems 2724-CD-050), ligand for CD200R
PMN killing of wt and HIP iECs (human PMNs; [3]): prevented PMN killing | PMN killing of wt and HIP iECs (human PMNs; [4]): somewhat delayed | PMN killing of wt and HIP iECs (human PMNs; PMNs stimulated with IL-2, Fc chimera proteins 10 μg/ml, listed as recombinant CD200): delayed but not prevented

B2: CD99 Fc chimera: Recombinant CD99 Fc chimera protein (R&D Systems 3968-CD-050), ligand for PIRLα (protein)
chain: DGGFDLSDALPDNENKKPTAIPKKPSAGDDFDLGDAVVDGENDDPRPPNPPKPMPNPNPNHPSSSGSFSDADLADGVSGGEGKGGSDGGGSHRKEGEEAD
modifications: left off: a dimerising Fc or GST
notes: Recombinant CD99 Fc chimera protein (R&D Systems 3968-CD-050), ligand for PIRLα
PMN killing of wt and HIP iECs (human PMNs; [3]): prevented PMN killing | PMN killing of wt and HIP iECs (human PMNs; [4]): somewhat delayed | PMN killing of wt and HIP iECs (human PMNs; PMNs stimulated with IL-2, Fc chimera proteins 10 μg/ml, listed as CD99): delayed but not prevented
